Data as given in ChEMBL document CHEMBL1147459, “Thienopyridine and benzofuran derivatives as potent anti-tumor agents possessing different structure-activity relationships” (Bioorg Med Chem Lett, 2004).
In brackets after ≈: the same amount, converted by molar mass.

Test system: WI-38 VA13
Test: Effective concentration required to cause cytotoxicity to tumorigenic cell line WI-38 VA-13 subline 2RA
Type: functional, cell-based
Settings: Homo sapiens

## CNc1c(C(=O)c2ccccc2)sc2nc(-c3cccs3)ccc12
  EC50: 0.42 µg/mL (≈ 1.2 µM)

## COc1ccc(OC)c(C(=O)c2sc3nc(-c4cccs4)ccc3c2N)c1
  EC50: 0.079 µg/mL (≈ 0.199 µM)

## COc1ccccc1C(=O)c1sc2nc(-c3cccs3)ccc2c1N
  EC50: 0.059 µg/mL (≈ 0.161 µM)

## CCOC(=O)c1sc2nc(-c3cccs3)ccc2c1N
  EC50: > 4 µg/mL

## Nc1c(C(=O)c2ccc(Br)cc2)sc2nc(-c3cccs3)ccc12
  EC50: 2.8 µg/mL (≈ 6.74 µM)

## Nc1c(C(=O)c2ccc(F)cc2)sc2nc(-c3cccs3)ccc12
  EC50: 1.8 µg/mL (≈ 5.08 µM)

## Nc1c(C(=O)c2ccc(F)cc2F)sc2nc(-c3cccs3)ccc12
  EC50: 2.3 µg/mL (≈ 6.18 µM)

## COc1cccc(C(=O)c2sc3nc(-c4cccs4)ccc3c2N)c1
  EC50: 0.03 µg/mL (≈ 0.0819 µM)

## Nc1c(C(=O)c2cccc([N+](=O)[O-])c2)sc2nc(-c3cccs3)ccc12
  EC50: 0.15 µg/mL (≈ 0.393 µM)

## CCOC(=O)c1oc2cc(-c3ccccc3)cc(OC)c2c1C
  EC50: > 4 µg/mL

## CN(C)c1c(C(=O)c2ccccc2)sc2nc(-c3cccs3)ccc12
  EC50: > 4 µg/mL

## CC(=O)c1sc2nc(-c3cccs3)ccc2c1N
  EC50: 2.7 µg/mL (≈ 9.84 µM)

## CC(C)(C)C(=O)c1sc2nc(-c3cccs3)ccc2c1N
  EC50: 0.57 µg/mL (≈ 1.8 µM)

## Nc1c(C(=O)c2ccccc2)sc2nc(-c3cccs3)ccc12
  EC50: 0.09 µg/mL (≈ 0.268 µM)

## Nc1c(C(=O)c2cccc(Br)c2)sc2nc(-c3cccs3)ccc12
  EC50: 0.5 µg/mL (≈ 1.2 µM)

## COc1ccc(C(=O)c2sc3nc(-c4cccs4)ccc3c2N)c(OC)c1
  EC50: 0.52 µg/mL (≈ 1.31 µM)

## CCC(=O)c1sc2nc(-c3cccs3)ccc2c1N
  EC50: 0.89 µg/mL (≈ 3.09 µM)

## Nc1c(C(=O)c2ccc(F)c(F)c2)sc2nc(-c3cccs3)ccc12
  EC50: > 4 µg/mL

## COc1ccc(C(=O)c2sc3nc(-c4cccs4)ccc3c2N)cc1
  EC50: 0.77 µg/mL (≈ 2.1 µM)

## Nc1c(C(=O)c2cccc(F)c2)sc2nc(-c3cccs3)ccc12
  EC50: 0.025 µg/mL (≈ 0.0705 µM)
